Measured values from patent US8076487B2, “Pyridone derivative and herbicide” (Kumiai Chemical Industry Co., Ltd., priority 2006, dated 2011).

How the values were obtained:
Type in all cases: in vivo
[1] = system: velvetleaf (Abutilon theophrasti medicus); test: Test Example 2: herbicidal effect by soil application to upland field; settings: soil surface spray, upland field soil, 1,000 g active ingredient per hectare, 21st day after application
Outline: (§1)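 Seeds were sown in field soil, covered, and the soil surface sprayed with a water-diluted wettable powder at 1,000 g active ingredient per hectare in 1,000 L/ha. Plants grew in a greenhouse, and herbicidal effect was rated against a standard scale 21 days after application.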

[2] = system: barnyardgrass (Echinochloa crus-galli (L.) P. Beauv. var. crus-galli); test: as above; settings: soil surface spray, upland field soil, 1,000 g active ingredient per hectare, 21st day after application
Outline: as §1

[3] = system: slender amaranth (Amaranthus viridis L.); test: as above; settings: soil surface spray, upland field soil, 1,000 g active ingredient per hectare, 21st day after application
Outline: as §1

[4] = system: green foxtail (Setaria viridis (L.) P. Beauv.); test: as above; settings: soil surface spray, upland field soil, 1,000 g active ingredient per hectare, 21st day after application
Outline: as §1

[5] = system: velvetleaf (Abutilon theophrasti medicus); test: Test Example 3: herbicidal effect by application to upland field (foliage treatment); settings: foliage treatment, 1,000 g active ingredient per 1 hectare, 14th day after application, greenhouse
Outline: (§2)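 Foliar spray on two-week-old greenhouse weeds in field soil: wettable powder formulation diluted in water, applied at 1,000 L/ha to give 1,000 g a.i./ha. Damage rated by a fixed scoring standard on day 14 after application.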

[6] = system: barnyardgrass (Echinochloa crus-galli (L.) P. Beauv. var. crus-galli); test: as above; settings: foliage treatment, 1,000 g active ingredient per 1 hectare, 14th day after application, greenhouse
Outline: as §2

[7] = system: slender amaranth (Amaranthus viridis L.); test: as above; settings: foliage treatment, 1,000 g active ingredient per 1 hectare, 14th day after application, greenhouse
Outline: as §2

[8] = system: green foxtail (Setaria viridis (L.) P. Beauv.); test: as above; settings: foliage treatment, 1,000 g active ingredient per 1 hectare, 14th day after application, greenhouse
Outline: as §2

[9] = system: early watergrass (Echinochloa oryzicola Vasing); test: Test Example 1: herbicidal effect by soil application to paddy field; settings: paddy field soil application; active ingredient 1,000 g per 1 hectare; wettable powder added dropwise to water surface the day after sowing; examined on the 21st day after application
Outline: (§3)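 Under greenhouse conditions, seeds sown on puddled paddy soil in 100 cm2 pots under 3 cm of standing water received the test compound; injury was assessed with a standard scoring scheme three weeks (day 21) after treatment.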

[10] = system: Japanese bulrush (Scirpus juncoides Roxb.); test: as above; settings: paddy field soil application; active ingredient 1,000 g per 1 hectare; wettable powder added dropwise to water surface the day after sowing; examined on the 21st day after application
Outline: as §3

[11] = system: heartshape false pickerelweed (Monochoria vaginalis (Burm.f.) C.Presl); test: as above; settings: paddy field soil application; active ingredient 1,000 g per 1 hectare; wettable powder added dropwise to water surface the day after sowing; examined on the 21st day after application
Outline: as §3

SMILES	herbicidal effect (index), Velvetleaf [1]	herbicidal effect (index), Barnyardgrass [2]	herbicidal effect (index), Slender Amaranth [3]	herbicidal effect (index), Green Foxtail [4]	herbicidal effect, Velvetleaf [5]	herbicidal effect, Barnyardgrass [6]	herbicidal effect, Slender Amaranth [7]	herbicidal effect, Green Foxtail [8]	herbicidal effect, Echinochloa oryzicola Vasing [9]	herbicidal effect, Scirpus juncoides Roxb. [10]	herbicidal effect, Monochoria vaginalis (Burm. f.) C. Presl [11]
Cn1ncc(C(=O)c2ccc(C(F)(F)F)n(-c3ccc(F)c(F)c3)c2=O)c1O [IV-85]	5 (90% or more of herbicidal effect and crop phytotoxicity)	5 (90% or more of herbicidal effect and crop phytotoxicity)	5 (90% or more of herbicidal effect and crop phytotoxicity)	5 (90% or more of herbicidal effect and crop phytotoxicity)	5 (90% or more of herbicidal effect and crop phytotoxicity)	5 (90% or more of herbicidal effect and crop phytotoxicity)	5 (90% or more of herbicidal effect and crop phytotoxicity)	5 (90% or more of herbicidal effect and crop phytotoxicity)	5 (90% or more of herbicidal effect and crop phytotoxicity)	5 (90% or more of herbicidal effect and crop phytotoxicity)	5 (90% or more of herbicidal effect and crop phytotoxicity)
Cc1nn(C)c(O)c1C(=O)c1ccc(C(F)(F)F)n(-c2ccc(F)c(F)c2)c1=O [IV-86]	5 (90% or more of herbicidal effect and crop phytotoxicity)	5 (90% or more of herbicidal effect and crop phytotoxicity)	5 (90% or more of herbicidal effect and crop phytotoxicity)	5 (90% or more of herbicidal effect and crop phytotoxicity)	5 (90% or more of herbicidal effect and crop phytotoxicity)	5 (90% or more of herbicidal effect and crop phytotoxicity)	5 (90% or more of herbicidal effect and crop phytotoxicity)	4 (70 to less than 90% of herbicidal effect and crop phytotoxicity)	5 (90% or more of herbicidal effect and crop phytotoxicity)	4 (70 to less than 90% of herbicidal effect and crop phytotoxicity)	5 (90% or more of herbicidal effect and crop phytotoxicity)
COc1cc(-n2c(C(F)(F)F)ccc(C(=O)c3cnn(C)c3O)c2=O)ccc1Cl [IV-90]	5 (90% or more of herbicidal effect and crop phytotoxicity)	5 (90% or more of herbicidal effect and crop phytotoxicity)	5 (90% or more of herbicidal effect and crop phytotoxicity)	3 (50 to less than 70% of herbicidal effect and crop phytotoxicity)	5 (90% or more of herbicidal effect and crop phytotoxicity)	5 (90% or more of herbicidal effect and crop phytotoxicity)	5 (90% or more of herbicidal effect and crop phytotoxicity)	5 (90% or more of herbicidal effect and crop phytotoxicity)	5 (90% or more of herbicidal effect and crop phytotoxicity)	5 (90% or more of herbicidal effect and crop phytotoxicity)	5 (90% or more of herbicidal effect and crop phytotoxicity)
COc1ccc(-n2c(C(F)(F)F)ccc(C(=O)c3cnn(C)c3O)c2=O)cc1F [IV-92]	5 (90% or more of herbicidal effect and crop phytotoxicity)	5 (90% or more of herbicidal effect and crop phytotoxicity)	5 (90% or more of herbicidal effect and crop phytotoxicity)	5 (90% or more of herbicidal effect and crop phytotoxicity)	4 (70 to less than 90% of herbicidal effect and crop phytotoxicity)	4 (70 to less than 90% of herbicidal effect and crop phytotoxicity)	5 (90% or more of herbicidal effect and crop phytotoxicity)	4 (70 to less than 90% of herbicidal effect and crop phytotoxicity)	5 (90% or more of herbicidal effect and crop phytotoxicity)	5 (90% or more of herbicidal effect and crop phytotoxicity)	5 (90% or more of herbicidal effect and crop phytotoxicity)
CCCS(=O)(=O)Oc1c(C(=O)c2ccc(C(F)(F)F)n(-c3ccc(OC)c(F)c3)c2=O)cnn1C [IV-93]	5 (90% or more of herbicidal effect and crop phytotoxicity)	5 (90% or more of herbicidal effect and crop phytotoxicity)	5 (90% or more of herbicidal effect and crop phytotoxicity)	4 (70 to less than 90% of herbicidal effect and crop phytotoxicity)	4 (70 to less than 90% of herbicidal effect and crop phytotoxicity)	4 (70 to less than 90% of herbicidal effect and crop phytotoxicity)	5 (90% or more of herbicidal effect and crop phytotoxicity)	4 (70 to less than 90% of herbicidal effect and crop phytotoxicity)	5 (90% or more of herbicidal effect and crop phytotoxicity)	5 (90% or more of herbicidal effect and crop phytotoxicity)	5 (90% or more of herbicidal effect and crop phytotoxicity)
COCc1cc(-n2c(C(F)(F)F)ccc(C(=O)c3cnn(C)c3O)c2=O)ccc1F [IV-95]	5 (90% or more of herbicidal effect and crop phytotoxicity)	5 (90% or more of herbicidal effect and crop phytotoxicity)	5 (90% or more of herbicidal effect and crop phytotoxicity)	5 (90% or more of herbicidal effect and crop phytotoxicity)	5 (90% or more of herbicidal effect and crop phytotoxicity)	5 (90% or more of herbicidal effect and crop phytotoxicity)	5 (90% or more of herbicidal effect and crop phytotoxicity)	5 (90% or more of herbicidal effect and crop phytotoxicity)	5 (90% or more of herbicidal effect and crop phytotoxicity)	5 (90% or more of herbicidal effect and crop phytotoxicity)	5 (90% or more of herbicidal effect and crop phytotoxicity)
CCCS(=O)(=O)Oc1c(C(=O)c2ccc(C(F)(F)F)n(-c3ccc(F)c(COC)c3)c2=O)cnn1C(C)C [IV-96]	5 (90% or more of herbicidal effect and crop phytotoxicity)	4 (70 to less than 90% of herbicidal effect and crop phytotoxicity)	4 (70 to less than 90% of herbicidal effect and crop phytotoxicity)	3 (50 to less than 70% of herbicidal effect and crop phytotoxicity)	5 (90% or more of herbicidal effect and crop phytotoxicity)	3 (50 to less than 70% of herbicidal effect and crop phytotoxicity)	4 (70 to less than 90% of herbicidal effect and crop phytotoxicity)	5 (90% or more of herbicidal effect and crop phytotoxicity)	5 (90% or more of herbicidal effect and crop phytotoxicity)	4 (70 to less than 90% of herbicidal effect and crop phytotoxicity)	5 (90% or more of herbicidal effect and crop phytotoxicity)
Cn1ncc(C(=O)c2ccc(C(F)(F)F)n(-c3ccc4c(c3)OCO4)c2=O)c1O [IV-97]	5 (90% or more of herbicidal effect and crop phytotoxicity)	5 (90% or more of herbicidal effect and crop phytotoxicity)	5 (90% or more of herbicidal effect and crop phytotoxicity)	4 (70 to less than 90% of herbicidal effect and crop phytotoxicity)	5 (90% or more of herbicidal effect and crop phytotoxicity)	5 (90% or more of herbicidal effect and crop phytotoxicity)	5 (90% or more of herbicidal effect and crop phytotoxicity)	5 (90% or more of herbicidal effect and crop phytotoxicity)	5 (90% or more of herbicidal effect and crop phytotoxicity)	5 (90% or more of herbicidal effect and crop phytotoxicity)	5 (90% or more of herbicidal effect and crop phytotoxicity)
